Assay results as given in article PMC12948427 (The Journal of Clinical Investigation, 2025).
Values joined by “and” are separate entries in the source; they are usually repeats but may differ in a detail not shown here. Identical values can stand only once. Like-named read-outs stand apart in the source and are kept apart here.

Key:
HCoV-HKU1 VLP = type: cell-based
HCoV-229E = experiment: Infection of ALI-cultured primary HBEs, HCoV-229E; type: cell-based
Description: Primary HBEs at passage 3 or earlier were seeded at a density of 40,000 cells per well in Transwell inserts (Costar 6.5 mm Transwell, 0.4 μm Pore Polyester Membrane Inserts, catalog 3470) for expansion culture. The cells were cultured in expansion medium (PneumaCult-Ex Plus Medium, catalog 05040) until tight junctions were formed. Once tight junctions were established, the expansion medium in the upper chamber was discarded, and the medium in the lower chamber was replaced with ALI differentiation medium (PneumaCult-ALI Medium, catalog 05001). Cells were maintained under ALI conditions, with the medium being changed every 2 days. The differentiation process was carried out for 21 days, during which cell morphology and differentiation status were monitored. The fully differentiated cells were infected with HCoV-OC43, HCoV-229E, HCoV-NL63, or SARS-CoV-2 (MOI = 1), and fresh medium was changed 1 hour postinfection. Specific peptide was added into the medium every 24 hours. At 96 hours postinfection, cells in Transwell inserts were washed with 140 μL PBS per insert, and the wash fluid was collected to extract virus RNA followed by RT-qPCR. […] The fluorescence was measured using ImageJ (NIH).

MHV [1] = experiment: TEM of MHV-infected 17Cl-1 cells (virions, DMVs); type: cell-based, mouse hepatitis virus (MHV)
Description: WT or Hgs-KO 17Cl-1 cells were grown on ACLAR films and infected with MHV. At 24 hpi the cells were rinsed with PBS and then fixed with 2.5% glutaraldehyde in PBS overnight. The fixed cells were rinsed with 0.1 M PB 2 times and then double-distilled water 2 times, each time for 6 minutes. They were submerged in an aqueous solution containing 1% osmium tetraoxide and 1.5% potassium ferricyanide for 1.5 hours and then rinsed with double-distilled water 3 times, each time for 6 minutes. The samples underwent a dehydration process in which the solution submerging the samples was sequentially replaced by 30%, 50%, 70%, 80%, 90%, 100%, 100%, and 100% ethanol solutions, with each solution submerging the sample for 6 minutes. The samples were then infiltrated sequentially with 100% acetone for 6 minutes 2 times, 3:1 acetone/EMbed 812 resin for 1 hour, 1:1 acetone/EMbed 812 resin for 2 hours, 1:3 acetone/EMbed 812 resin for 3 hours, and 100% EMbed 812 resin for 12 hours 2 times. The samples were embedded in EMbed 812 resin and underwent solidification at 45°C for 12 hours and then 60°C for 48 hours. Sectioning was performed with a Leica EM UC6 ultramicrotome. The sections were stained with 2% uranyl acetate for 15 minutes and 1% lead citrate for 5 minutes. Electron micrographs were acquired with an FEI Tecnai Spirit 120 kV transmission electron microscope operating at 100 kV accelerating voltage.

[2] = target: hHGS 1-390-6 × HIS protein (Homo sapiens, UniProt O14964); experiment: biochemical
Chain of hHGS 1-390-6 × HIS protein (O14964 1-390): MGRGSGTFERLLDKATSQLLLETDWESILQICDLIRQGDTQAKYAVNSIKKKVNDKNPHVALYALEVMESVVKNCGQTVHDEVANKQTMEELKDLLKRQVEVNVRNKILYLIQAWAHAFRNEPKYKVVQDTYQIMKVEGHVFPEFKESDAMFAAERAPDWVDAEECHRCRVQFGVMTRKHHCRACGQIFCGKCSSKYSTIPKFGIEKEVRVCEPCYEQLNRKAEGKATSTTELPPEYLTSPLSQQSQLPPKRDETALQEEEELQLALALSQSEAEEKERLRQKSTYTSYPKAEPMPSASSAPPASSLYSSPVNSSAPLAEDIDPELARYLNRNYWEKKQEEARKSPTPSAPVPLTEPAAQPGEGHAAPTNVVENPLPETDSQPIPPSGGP

MHV [3] = tested on: MHV
MHV [4] = type: cell-based, mouse hepatitis virus (MHV); conditions: for Inhibition, combination matrix (Figure S12C): Molnupiravir 0 uM; for Inhibition, combination matrix (Figure S12D): nirmatrelvir 0 uM
[5] = type: cell-based
HCoV-OC43 VLP = type: cell-based
SARS-CoV-2 M protein = type: cell-based
[6] = TEM, RTB-treated versus DMSO, sheet does not name what is scored

SMILES: CCCC(=O)OC[C@@H](OC(=O)CCC)[C@@H](OC(=O)CCC)[C@H](Cn1c2nc(=O)[nH]c(=O)c-2nc2cc(C)c(C)cc21)OC(=O)CCC [RTB, riboflavin tetrabutyrate]
- cell viability, Figure S9C (17Cl-1 cells; concentration 100): 97.7719 and 100.641 and 97.299
- cell viability, Figure S9C (17Cl-1 cells; concentration 200): 98.9701 and 100.61 and 98.3395
- cell viability, Figure S9C (17Cl-1 cells; concentration 500): 100.294 and 99.5691 and 98.0557
- cell viability, Figure S9C (17Cl-1 cells; concentration 1000): 100.137 and 99.6952 and 100.704
- cell viability, Figure S9C (17Cl-1 cells; concentration 2000): 101.366 and 100.294 and 100.61
- cell viability, Figure S9C (17Cl-1 cells; concentration 5000): 101.555 and 101.524 and 100.673
- cell viability, Figure S9C (17Cl-1 cells; concentration 10000): 99.979 and 101.24 and 100.294
- cell viability, Figure S9C (17Cl-1 cells; concentration 20000): 99.506 and 99.1907 and 98.4025
- VLPs' release (HCoV-HKU1 VLP): concentration-dependent inhibition
- extracellular viral gRNA levels (RT-qPCR) (HCoV-229E; Fig 5H, HCoV-229E MOI = 1, ALI-cultured HBEs, 96 h, RTB dose 5 (unit not given)): 7 and 6 and 8
- inhibition of infection in ALI cultures of HBEs (HCoV-229E; HCoV-229E): significant, dose-dependent inhibition
- DMVs, the replication organelles (TEM) (MHV [1]; 25 μM, MHV-infected 17Cl-1, hpi = 24 h): not significantly changed
- intracellular mature virions (TEM) (MHV [1]; 25 μM, MHV-infected 17Cl-1, hpi = 24 h, compared with DMSO): significantly decreased
- Negative (count, Figure 7G) (MHV [1]; RTB-treated, DMSO: 19): 2
- Positive (count, Figure 7G) (MHV [1]; RTB-treated, DMSO: 41): 58
- Negative (number of cells counted, Figure 7H) (MHV [1]; [6]): 37
- Positive (number of cells counted, Figure 7H) (MHV [1]; [6]): 23
- Kd [2]: 4.82 µM
- viability of infected cells (rescue of cytopathic effect), Figures S9G-L (MHV [3]; concentration 10): 46.6398 and 47.8192 and 45.9379
- viability of infected cells (rescue of cytopathic effect), Figures S9G-L (MHV [3]; concentration 30): 48.4931 and 47.9876 and 45.7132
- viability of infected cells (rescue of cytopathic effect), Figures S9G-L (MHV [3]; concentration 100): 49.4197 and 48.1842 and 47.2295
- viability of infected cells (rescue of cytopathic effect), Figures S9G-L (MHV [3]; concentration 300): 52.6488 and 47.5665 and 45.7132
- viability of infected cells (rescue of cytopathic effect), Figures S9G-L (MHV [3]; concentration 1000): 53.6878 and 50.8517 and 50.0094
- viability of infected cells (rescue of cytopathic effect), Figures S9G-L (MHV [3]; concentration 3000): 66.4358 and 61.915 and 62.9259
- viability of infected cells (rescue of cytopathic effect), Figures S9G-L (MHV [3]; concentration 10000): 81.009 and 81.0651 and 81.6829
- viability of infected cells (rescue of cytopathic effect), Figures S9G-L (MHV [3]; concentration 25000): 85.0805 and 84.4908 and 83.1711
- Inhibition, combination matrix (Figure S12C) (MHV [4]; RTB 0.01 uM): -3.196
- Inhibition, combination matrix (Figure S12D) (MHV [4]; RTB 0.01 uM): 0.02357
- Inhibition, combination matrix (Figure S12C) (MHV [4]; RTB 0.03 uM): 0.4191
- Inhibition, combination matrix (Figure S12D) (MHV [4]; RTB 0.03 uM): 0.6847
- Inhibition, combination matrix (Figure S12C) (MHV [4]; RTB 0.1 uM): 5.187
- Inhibition, combination matrix (Figure S12D) (MHV [4]; RTB 0.1 uM): 4.267
- Inhibition, combination matrix (Figure S12C) (MHV [4]; RTB 0.3 uM): 0.1333
- Inhibition, combination matrix (Figure S12D) (MHV [4]; RTB 0.3 uM): 7.699
- Inhibition, combination matrix (Figure S12C) (MHV [4]; RTB 1 uM): 5.1
- Inhibition, combination matrix (Figure S12D) (MHV [4]; RTB 1 uM): 9.0154
- Inhibition, combination matrix (Figure S12C) (MHV [4]; RTB 3 uM): 12.0762
- Inhibition, combination matrix (Figure S12D) (MHV [4]; RTB 3 uM): 25.2258
- Inhibition, combination matrix (Figure S12C) (MHV [4]; RTB 10 uM): 64.6863
- Inhibition, combination matrix (Figure S12D) (MHV [4]; RTB 10 uM): 39.9859
- Inhibition, combination matrix (Figure S12C) (MHV [4]; RTB 25 uM): 94.0563
- Inhibition, combination matrix (Figure S12D) (MHV [4]; RTB 25 uM): 93.5156
- combination effect in vitro (MHV [4]; combined with molnupiravir): additive effects
- combination effect in vitro (MHV [4]; combined with nirmatrelvir): additive effects
- Inhibition, time-of-drug-addition (Figures S12A, S12B) ([5]; 1h, concentration 10000 (unit not given)): 18.697 and 20.3699 and 24.961
- Inhibition, time-of-drug-addition (Figures S12A, S12B) ([5]; 1h, concentration 25000 (unit not given)): 81.3431 and 85.284 and 85.9984
- Inhibition, time-of-drug-addition (Figures S12A, S12B) ([5]; 3h, concentration 3000 (unit not given)): 10.0367 and 8.463 and 5.695
- Inhibition, time-of-drug-addition (Figures S12A, S12B) ([5]; 3h, concentration 10000 (unit not given)): 25.0374 and 23.4524 and 23.7085
- Inhibition, time-of-drug-addition (Figures S12A, S12B) ([5]; 3h, concentration 25000 (unit not given)): 87.678 and 84.0771 and 84.6309
- Inhibition, time-of-drug-addition (Figures S12A, S12B) ([5]; 5h, concentration 10000 (unit not given)): 24.2683 and 28.1902 and 26.5679
- Inhibition, time-of-drug-addition (Figures S12A, S12B) ([5]; 5h, concentration 25000 (unit not given)): 80.9022 and 85.7938 and 85.9604
- Inhibition, time-of-drug-addition (Figures S12A, S12B) ([5]; 7h, concentration 3000 (unit not given)): 11.352 and 13.6306 and 7.232
- Inhibition, time-of-drug-addition (Figures S12A, S12B) ([5]; 7h, concentration 10000 (unit not given)): 27.8545 and 21.5848 and 25.4245
- Inhibition, time-of-drug-addition (Figures S12A, S12B) ([5]; 7h, concentration 25000 (unit not given)): 81.9707 and 81.2844 and 80.2961
- VLPs' release (HCoV-OC43 VLP): concentration-dependent inhibition
- cell viability, Figure S9M (Vero E6 cells; concentration 100): 90.9619 and 91.4921 and 91.5678
- cell viability, Figure S9M (Vero E6 cells; concentration 200): 83.3123 and 82.1005 and 89.9015
- cell viability, Figure S9M (Vero E6 cells; concentration 500): 91.4921 and 86.1146 and 87.6294
- cell viability, Figure S9M (Vero E6 cells; concentration 1000): 92.9311 and 88.614 and 83.4638
- cell viability, Figure S9M (Vero E6 cells; concentration 2000): 97.5511 and 94.5216 and 90.4317
- cell viability, Figure S9M (Vero E6 cells; concentration 5000): 93.6885 and 92.1737 and 93.0068
- cell viability, Figure S9M (Vero E6 cells; concentration 10000): 96.718 and 96.0363 and 91.6435
- cell viability, Figure S9M (Vero E6 cells; concentration 20000): 91.6435 and 99.3688 and 98.3085
- Colocalization of M with Sec61b (Manders' coefficient) (SARS-CoV-2 M protein): 0.92 and 0.994 and 0.992
- M protein localization (SARS-CoV-2 M protein): induced M retention in the ER
- Sec61b colocalization coefficient (Figure 7I) (SARS-CoV-2 M protein): 0.867 and 0.94 and 0.917
